Source: ChEMBL document CHEMBL5625239, “Synthesis of 1,3,5-triphenyl-1,2,4-triazole derivatives and their neuroprotection by anti-oxidative stress and anti-inflammation and protecting BBB” (Eur J Med Chem, 2023)
The source made the active and inactive calls. No cut-off for these calls is given here.

Columns and labels:
RAW264.7 [1] = test: Anti-inflammatory activity in mouse RAW264.7 cells assessed as inhibition of LPS-induced NO production preincubated with compound for 1 hrs followed by LPS stimulation and measured after 24 hrs; type: functional, cell-based; details: time 25.0 hrs
Rattus norvegicus [2] = test: Neuroprotective activity against middle cerebral artery occlusion induced ischemia stroke Sprague-Dawley rat model assessed as cerebral infarction area at 10 mg/kg, ip measured after 24 hrs by TTC staining based imaging analysis (reference value: 20.08 +/- 5.70); type: functional
[3] = Acute toxicity in mouse assessed as effect on behavior at 1000 mg/kg, ip; type: organism-based; details: in vivo
RAW264.7 [4] = test: Anti-inflammatory activity in LPS-induced mouse RAW264.7 cells assessed as decrease in COX-2 expression preincubated with compound for 1 hrs followed by LPS stimulation and measured after 24 hrs by Western blot analysis; type: functional, cell-based; details: dose 1.25-5 µM, time 25.0 hrs
RAW264.7 [5] = test: Anti-inflammatory activity in LPS-induced mouse RAW264.7 cells assessed as decrease in iNOS expression preincubated with compound for 1 hrs followed by LPS stimulation and measured after 24 hrs by Western blot analysis; type: functional, cell-based; details: dose 1.25-5 µM, time 25.0 hrs
Rattus norvegicus [6] = test: Neuroprotective activity against middle cerebral artery occlusion induced ischemia stroke Sprague-Dawley rat model assessed as neurological severity score at 5 mg/kg, ip measured after 24 hrs by behavioral test (reference value: 10.50 +/- 2.72); type: functional
PC-12 [7] = test: Protection against SNP-induced cell damage in rat PC-12 cells assessed as inhibition of ROS accumulation by measuring reduction in green fluorescence intensity at 10 uM preincubated with compound for 2 hrs followed by SNP addition and measured after 24 hrs by laser confocal microscopic analysis; type: functional, cell-based; details: time 26.0 hrs
PC-12 [8] = test: Protection against SNP-induced cell damage in rat PC-12 cells at 10 uM pretreated with compound for 2 hrs followed by SNP addition and measured after 24 hrs by MTT assay; type: functional, cell-based; details: time 26.0 hrs
Rattus norvegicus [9] = test: Neuroprotective activity against middle cerebral artery occlusion induced ischemia stroke Sprague-Dawley rat model assessed as neurological severity score at 20 mg/kg, ip measured after 24 hrs by behavioral test (reference value: 10.50 +/- 2.72); type: functional
Rattus norvegicus [10] = test: Neuroprotective activity against middle cerebral artery occlusion induced ischemia stroke Sprague-Dawley rat model assessed as neurological severity score at 10 mg/kg, ip measured after 24 hrs by behavioral test (reference value: 10.50 +/- 2.72); type: functional
Rattus norvegicus [11] = test: Neuroprotective activity against middle cerebral artery occlusion induced ischemia stroke Sprague-Dawley rat model assessed as reduction in MDA level in serum at 20 mg/kg, ip measured after 24 hrs by ELISA; type: functional, organism-based
[12] = Acute toxicity in mouse assessed as mortality at 1000 mg/kg, ip; type: organism-based; details: in vivo
Rattus norvegicus [13] = test: Neuroprotective activity against middle cerebral artery occlusion induced ischemia stroke Sprague-Dawley rat model assessed as cerebral infarction area at 5 mg/kg, ip measured after 24 hrs by TTC staining based imaging analysis (reference value: 20.08 +/- 5.70); type: functional
PC-12 [14] = test: Protection against SNP-induced cell damage in rat PC-12 cells assessed as reduction in apoptosis by measuring decrease in cell count at 10 uM preincubated with compound for 2 hrs followed by SNP addition and measured after 24 hrs by confocal laser microscopic analysis; type: functional, cell-based; details: time 26.0 hrs
PC-12 [15] = test: Neuroprotective activity against SNP-induced cell damage in rat PC-12 cells pretreated with compound for 2 hrs followed by SNP addition and measured after 24 hrs by MTT assay; type: functional, cell-based; details: dose 2.5-100 µM, time 26.0 hrs
Rattus norvegicus [16] = test: Neuroprotective activity against middle cerebral artery occlusion induced ischemia stroke Sprague-Dawley rat model assessed as reduction in TNF-alpha level in serum at 20 mg/kg, ip measured after 24 hrs by ELISA; type: functional, organism-based
Rattus norvegicus [17] = test: Neuroprotective activity against middle cerebral artery occlusion induced ischemia stroke Sprague-Dawley rat model assessed as reduction in glycocalyx degradation by measuring decrease in serum hyaluronic acid level administered intraperitoneally and measured after 24 hrs by ELISA; type: functional, organism-based; details: dose 5-20 mg/kg, route ip
Rattus norvegicus [18] = test: Neuroprotective activity against middle cerebral artery occlusion induced ischemia stroke Sprague-Dawley rat model assessed as reduction in serum MMP-9 level administered intraperitoneally and measured after 24 hrs by ELISA; type: functional, organism-based; details: dose 5-20 mg/kg, route ip
Rattus norvegicus [19] = test: Neuroprotective activity against middle cerebral artery occlusion induced ischemia stroke Sprague-Dawley rat model assessed as cerebral infarction area at 20 mg/kg, ip measured after 24 hrs by TTC staining based imaging analysis (reference value: 20.08 +/- 5.70); type: functional
Rattus norvegicus [20] = test: Neuroprotective activity against middle cerebral artery occlusion induced ischemia stroke Sprague-Dawley rat model assessed as reduction in glycocalyx degradation by measuring decrease in serum syndecan-1 level at 5 to 20 mg/kg, ip measured after 24 hrs by ELISA; type: functional, organism-based; details: dose 5-20 mg/kg
[21] = Acute toxicity in ip dosed mouse assessed as lethal dose; type: organism-based; details: in vivo
Rattus norvegicus [22] = test: Neuroprotective activity against middle cerebral artery occlusion induced ischemia stroke Sprague-Dawley rat model assessed as increase in SOD level in serum at 20 mg/kg, ip measured after 24 hrs by ELISA; type: functional, organism-based
Rattus norvegicus [23] = test: Neuroprotective activity against middle cerebral artery occlusion induced ischemia stroke Sprague-Dawley rat model assessed as reduction in glycocalyx degradation by measuring decrease in serum heparan sulfate level at 5 to 20 mg/kg, ip measured after 24 hrs by ELISA; type: functional, organism-based; details: dose 5-20 mg/kg
[24] = target: T1, Prostaglandin G/H synthase 1 (Ovis aries, UniProt P05979); test: Inhibition of ovine COX-1 using arachidonic acid as substrate preincubated with compound for 5 mins followed by substrate addition and measured after 2 mins by enzyme immunoassay
T1 sequence (P05979 whole entry): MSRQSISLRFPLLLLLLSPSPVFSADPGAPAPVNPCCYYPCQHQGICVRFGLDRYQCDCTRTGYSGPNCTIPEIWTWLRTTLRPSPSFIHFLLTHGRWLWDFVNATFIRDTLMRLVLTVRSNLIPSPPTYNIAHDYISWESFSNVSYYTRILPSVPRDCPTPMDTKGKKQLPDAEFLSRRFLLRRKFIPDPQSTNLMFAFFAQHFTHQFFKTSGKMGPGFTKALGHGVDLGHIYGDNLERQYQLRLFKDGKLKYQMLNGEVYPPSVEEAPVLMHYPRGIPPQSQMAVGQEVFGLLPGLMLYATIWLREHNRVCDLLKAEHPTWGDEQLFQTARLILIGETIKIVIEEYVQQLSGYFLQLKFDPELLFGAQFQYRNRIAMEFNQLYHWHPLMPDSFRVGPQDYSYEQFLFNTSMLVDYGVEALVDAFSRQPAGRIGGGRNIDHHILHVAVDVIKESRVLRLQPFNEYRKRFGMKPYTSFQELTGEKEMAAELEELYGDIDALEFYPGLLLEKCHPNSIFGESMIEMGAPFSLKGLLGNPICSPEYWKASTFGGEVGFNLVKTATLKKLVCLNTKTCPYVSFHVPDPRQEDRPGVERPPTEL

[25] = target: Kelch-like ECH-associated protein 1 (Homo sapiens, UniProt Q14145); test: Binding affinity to CM5 chip immobilized KEAP1 Kelch domain (unknown origin) assessed as dissociation equilibrium constant by SPR analysis
PC-12 [26] = test: Protection against SNP-induced cell damage in rat PC-12 cells assessed as reduction in apoptosis by measuring normal nuclear staining at 10 uM preincubated with compound for 2 hrs followed by SNP addition and measured after 24 hrs by confocal laser microscopic analysis; type: functional, cell-based; details: time 26.0 hrs
Rattus norvegicus [27] = test: Neuroprotective activity against middle cerebral artery occlusion induced ischemia stroke Sprague-Dawley rat model assessed as reduction in IL-1beta level in serum at 20 mg/kg, ip measured after 24 hrs by ELISA; type: functional, organism-based
RAW264.7 [28] = test: Anti-inflammatory activity in LPS-induced mouse RAW264.7 cells assessed as reduction in PGE2 level preincubated with compound for 1 hrs followed by LPS stimulation and measured after 24 hrs by ELISA; type: functional, cell-based; details: time 25.0 hrs
PC-12 [29] = test: Protection against SNP-induced cell damage in rat PC-12 cells assessed as reduction in apoptosis by measuring decrease in bright-blue nuclei at 10 uM preincubated with compound for 2 hrs followed by SNP addition and measured after 24 hrs by confocal laser microscopic analysis; type: functional, cell-based; details: time 26.0 hrs
[30] = target: Voltage-gated inwardly rectifying potassium channel KCNH2 (Homo sapiens, UniProt Q12809); test: Inhibition of hERG in HEK293 cells by whole-cell patch clamp electrophysiological recording; type: toxicity, cell-based
RAW264.7 [31] = test: Cytotoxicity against mouse RAW264.7 cells assessed as reduction in cell viability at 5 uM incubated for 24 hrs by MTT assay; type: toxicity, cell-based; details: raw264.7, 24 h

Sequence of Kelch-like ECH-associated protein 1 (Q14145 whole entry, the tested form may be a part): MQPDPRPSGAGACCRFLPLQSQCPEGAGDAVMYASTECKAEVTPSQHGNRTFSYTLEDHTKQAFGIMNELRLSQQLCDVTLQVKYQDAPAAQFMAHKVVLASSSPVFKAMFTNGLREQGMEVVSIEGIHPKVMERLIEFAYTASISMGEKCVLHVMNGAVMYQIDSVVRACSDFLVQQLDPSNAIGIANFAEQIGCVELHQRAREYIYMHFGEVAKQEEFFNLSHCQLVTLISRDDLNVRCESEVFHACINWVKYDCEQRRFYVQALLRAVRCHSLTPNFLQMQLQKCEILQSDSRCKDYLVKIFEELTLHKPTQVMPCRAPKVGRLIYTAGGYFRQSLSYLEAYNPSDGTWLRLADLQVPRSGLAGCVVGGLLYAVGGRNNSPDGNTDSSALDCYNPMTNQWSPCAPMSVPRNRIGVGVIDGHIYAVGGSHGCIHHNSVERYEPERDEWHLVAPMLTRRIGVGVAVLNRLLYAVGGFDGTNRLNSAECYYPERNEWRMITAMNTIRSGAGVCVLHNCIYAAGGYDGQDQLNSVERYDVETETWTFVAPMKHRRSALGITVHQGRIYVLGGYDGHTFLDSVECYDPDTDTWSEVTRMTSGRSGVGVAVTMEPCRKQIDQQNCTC
Sequence of Voltage-gated inwardly rectifying potassium channel KCNH2 (Q12809 whole entry): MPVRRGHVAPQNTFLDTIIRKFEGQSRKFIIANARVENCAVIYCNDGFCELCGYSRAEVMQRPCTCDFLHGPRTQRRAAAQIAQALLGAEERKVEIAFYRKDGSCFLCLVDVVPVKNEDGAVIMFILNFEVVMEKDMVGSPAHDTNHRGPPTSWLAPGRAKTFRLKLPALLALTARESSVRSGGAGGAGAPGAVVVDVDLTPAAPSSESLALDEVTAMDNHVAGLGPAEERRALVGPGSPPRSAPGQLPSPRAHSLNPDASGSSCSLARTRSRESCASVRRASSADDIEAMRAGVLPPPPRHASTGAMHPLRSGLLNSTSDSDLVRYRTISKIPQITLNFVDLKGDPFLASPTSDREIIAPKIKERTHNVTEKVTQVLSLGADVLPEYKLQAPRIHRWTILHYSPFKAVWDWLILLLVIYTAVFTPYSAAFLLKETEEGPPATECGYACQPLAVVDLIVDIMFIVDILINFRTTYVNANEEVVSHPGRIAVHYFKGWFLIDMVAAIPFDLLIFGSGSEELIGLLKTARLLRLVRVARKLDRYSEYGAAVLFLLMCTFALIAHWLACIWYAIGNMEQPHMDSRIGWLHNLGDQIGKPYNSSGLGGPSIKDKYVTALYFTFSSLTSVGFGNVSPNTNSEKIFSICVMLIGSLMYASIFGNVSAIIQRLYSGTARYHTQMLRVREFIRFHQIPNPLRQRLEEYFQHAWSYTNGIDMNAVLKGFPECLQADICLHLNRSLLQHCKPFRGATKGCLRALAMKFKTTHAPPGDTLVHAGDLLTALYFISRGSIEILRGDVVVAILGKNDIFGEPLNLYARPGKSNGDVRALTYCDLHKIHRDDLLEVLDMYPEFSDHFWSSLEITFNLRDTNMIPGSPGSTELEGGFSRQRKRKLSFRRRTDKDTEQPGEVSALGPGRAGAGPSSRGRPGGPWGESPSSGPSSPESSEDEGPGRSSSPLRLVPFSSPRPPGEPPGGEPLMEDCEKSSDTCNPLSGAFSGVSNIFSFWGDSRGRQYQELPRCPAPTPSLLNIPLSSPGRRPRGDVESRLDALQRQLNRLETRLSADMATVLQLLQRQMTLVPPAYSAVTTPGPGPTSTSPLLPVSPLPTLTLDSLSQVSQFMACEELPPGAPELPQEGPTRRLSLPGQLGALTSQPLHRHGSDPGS

For `NS(=O)(=O)c1ccc(-n2nc(-c3ccc(C(F)(F)F)cc3O)nc2-c2ccccc2O)cc1`, the Activity (RAW264.7 [1]) was “Active”, the Activity (Rattus norvegicus [2]) was 17.43 and the Activity [3] was “Non-Toxic”. For the same compound, the Activity (RAW264.7 [4]) was “Dose-Dependent Effect”, the Activity (RAW264.7 [5]) was “Dose-Dependent Effect” and the Activity (Rattus norvegicus [6]) was 9.2. For the same compound, the Activity (PC-12 [7]) was “Active”, the Activity (PC-12 [8]) was “Active” and the Activity (Rattus norvegicus [9]) was 7.4. For the same compound, the Activity (Rattus norvegicus [10]) was 9.25, the Activity (Rattus norvegicus [11]) was “Active” and the Activity [12] was “Non-Toxic”. For the same compound, the Activity (Rattus norvegicus [13]) was 18.52, the Activity (PC-12 [14]) was “Active” and the Activity (PC-12 [15]) was “Dose-Dependent Effect”. The Activity (Rattus norvegicus [16]) was “Active”, the Activity (Rattus norvegicus [17]) was “Dose-Dependent Effect” and the Activity (Rattus norvegicus [18]) was “Dose-Dependent Effect”. The Activity (Rattus norvegicus [19]) was 15.61, the Activity (Rattus norvegicus [20]) was “Active” and the LD50 [21] was > 1000 mg/kg. The Activity (Rattus norvegicus [22]) was “Active”, the Activity (Rattus norvegicus [23]) was “Active” and the IC50 [24] was 86.5 µM. For the same compound, the Kd [25] was 16.5 µM, the Activity (PC-12 [26]) was “Active” and the Activity (Rattus norvegicus [27]) was “Active”. For the same compound, the Activity (RAW264.7 [28]) was “Active”, the Activity (PC-12 [29]) was “Active” and the IC50 [30] was > 30 µM. For the same compound, the Activity (RAW264.7 [31]) was “Non-Toxic”.
